Test results published in US20240358693A1, “METHODS OF TREATING PAIN” (Aisa Pharma, Inc., priority 2023, published 2024).

Tested on: participants with SSc-RP
Experiment: Scleroderma Health Assessment Questionnaire (SHAQ): disability indices and visual analog scales
Type: in vivo, human
Text: The standard, validated, patient reported outcome measures tool for SSc patients, the Scleroderma Health Assessment Questionnaire (SHAQ), will be used to assess the participant qualify of life. Details are attached in the Appendix. The participant quality of life will be scored, and a disability index calculated for each questionnaire completed by the patient at Screening and each in-clinic visit. The absolute change in participant quality of life from baseline to the end of each dosing period will be calculated similar to frequency data as before.
The SHAQ includes a Raynaud's VAS, which will be reported at screening and each in-clinic visit. The absolute change in Raynaud-VAS, assessed by the participants response to the SHAQ question ‘In the past 7 days, how much have your Raynaud's interfered with your daily activities?’ at baseline and the end of each dosing period will be calculated similar to frequency data as before.
The SHAQ is used to calculate a Disability Index to assess the participant qualify of life. The eight categories assessed by the Disability Index are 1) dressing and grooming, 2) arising, 3) eating, 4) walking, 5) hygiene, 6) reach, 7) grip, and 8) common daily activities. For each of these categories, patients report the amount of difficulty they have in performing two or three specific activities.
There are four possible responses for the Disability Index questions: • Without any difficulty=0 • With some difficulty=1 • With much difficulty=2 • Unable to do=3. • The highest score reported by the patient for any component question of the eight categories determines the score for that category. • If a component question is left blank or the response is too ambiguous to assign a score, then the score for that category is determined by the remaining completed question(s). • If all component questions are blank or if more than one answer is given, then follow up with the respondent is required. • If the respondent's mark is between the response columns, then move it to the closest one. If it's directly between the two, move it to the higher one.
Each of the disability items on the SHAQ has a companion aids/devices variable that is used to record what type(s) of assistance, if any, the participant uses for his/her usual activities. These variables (see below) are coded as follows: • 0=No assistance is needed. • 1=A special device is used by the patient in his/her usual activities. • 2=The patient usually needs help from another person. • 3=The patient usually needs BOTH a special device AND help from another person.
The scoring variables and scoring rules permit the computation of two disability indices, the Standard Disability Index and the Alternative Disability Index.
This question results in a new set of category scores that are computed by adjusting the score for each category, if necessary, based on the patient's use of an aid or device or assistance for that category. If either devices and/or help from another person are checked for a category, the score is set to “2”, unless the score is already “3” (i.e., scores of “0” or “1” are increased to “2”). For example, if the highest score for the dressing category is “1”, and the patient says they use a device for dressing, the computed category score would be “2”. The sum of the computed categories scores is then calculated and divided by the number of categories answered. This gives a score in the 0 to 3 range.
The aid and device variables are not used to calculate the alternative disability index; it is calculated by adding the scores for each of the categories and dividing by the number of categories answered. This gives a score in the 0 to 3 range.
The standard, validated, patient reported outcome measures tool for SSc patients, the SHAQ, was collected at the time points specified in the study schedules (FIG. 2 and FIGS. 4A and 4B) to assess the participant's quality of life. The SHAQ included a Raynaud's VAS that will also be reported separately.

[1] = Pooled Cilnidipine (10 mg or 20 mg) (N = 7), n 6
[2] = Pooled Cilnidipine (N = 6), Day 12, Modified ITT, SSc patients, Part A
[3] = Pooled Cilnidipine (N = 7), sensitivity analysis, Modified ITT, Part A

COCCOC(=O)C1=C(C)NC(C)=C(C(=O)OC/C=C/c2ccccc2)C1c1cccc([N+](=O)[O-])c1 (centres unmarked) [Cilnidipine, cilnidipine]
SHAQ patient reported disease severity, In-Clinic Visit (Day 12), Median (Pooled Cilnidipine (10 mg or 20 mg) (N = 7)): 1.200 | SHAQ patient reported disease severity, Percent Change from Baseline, Mean [1]: −59.80% | SHAQ patient reported disease severity, Percent Change from Baseline, Median [1]: −55.86% | SHAQ Alternative Disability Index: Change from Baseline, Mean [2]: 0.000 | SHAQ Alternative Disability Index: Change from Baseline, Median [2]: −0.063 | SHAQ Alternative Disability Index: In-Clinic Visit (Day 12), Mean [2]: 0.438 | SHAQ Alternative Disability Index: In-Clinic Visit (Day 12), Median [2]: 0.188 | SHAQ Alternative Disability Index: Percent Change from Baseline, Mean [2]: −12.90% | SHAQ Alternative Disability Index: Percent Change from Baseline, Median [2]: −22.22% | SHAQ Standard Disability Index: Change from Baseline, Mean [2]: −0.063 | SHAQ Standard Disability Index: Change from Baseline, Median [2]: 0.000 | SHAQ Standard Disability Index: In-Clinic Visit (Day 12), Mean [2]: 0.500 | SHAQ Standard Disability Index: In-Clinic Visit (Day 12), Median [2]: 0.188 | SHAQ Standard Disability Index: Percent Change from Baseline, Mean [2]: −25.00% | SHAQ Standard Disability Index: Percent Change from Baseline, Median [2]: −16.67% | SHAQ Visual Analogue Scale - Breathing Problems: Change from Baseline, Mean [2]: −0.617 | SHAQ Visual Analogue Scale - Breathing Problems: Change from Baseline, Median [2]: −0.400 | SHAQ Visual Analogue Scale - Breathing Problems: In-Clinic Visit (Day 12), Mean [2]: 1.200 | SHAQ Visual Analogue Scale - Breathing Problems: In-Clinic Visit (Day 12), Median [2]: 0.200 | SHAQ Visual Analogue Scale - Breathing Problems: Percent Change from Baseline, Mean [2]: −8.17% | SHAQ Visual Analogue Scale - Breathing Problems: Percent Change from Baseline, Median [2]: −41.33% | SHAQ Visual Analogue Scale - Finger Ulcers: Change from Baseline, Mean [2]: −0.750 | SHAQ Visual Analogue Scale - Finger Ulcers: Change from Baseline, Median [2]: −0.350 | SHAQ Visual Analogue Scale - Finger Ulcers: In-Clinic Visit (Day 12), Mean [2]: 0.617 | SHAQ Visual Analogue Scale - Finger Ulcers: In-Clinic Visit (Day 12), Median [2]: 0.350 | SHAQ Visual Analogue Scale - Finger Ulcers: Percent Change from Baseline, Mean [2]: −17.08% | SHAQ Visual Analogue Scale - Finger Ulcers: Percent Change from Baseline, Median [2]: −50.82% | SHAQ Visual Analogue Scale - Intestinal Problems: Change from Baseline, Mean [2]: −1.083 | SHAQ Visual Analogue Scale - Intestinal Problems: Change from Baseline, Median [2]: 0.000 | SHAQ Visual Analogue Scale - Intestinal Problems: In-Clinic Visit (Day 12), Mean [2]: 1.300 | SHAQ Visual Analogue Scale - Intestinal Problems: In-Clinic Visit (Day 12), Median [2]: 0.950 | SHAQ Visual Analogue Scale - Intestinal Problems: Percent Change from Baseline, Mean [2]: −15.53% | SHAQ Visual Analogue Scale - Intestinal Problems: Percent Change from Baseline, Median [2]: −7.06% | SHAQ Visual Analogue Scale - Overall Disease Severity: Change from Baseline, Mean [2]: −1.350 | SHAQ Visual Analogue Scale - Overall Disease Severity: Change from Baseline, Median [2]: −1.550 | SHAQ Visual Analogue Scale - Overall Disease Severity: In-Clinic Visit (Day 12), Mean [2]: 1.733 | SHAQ Visual Analogue Scale - Overall Disease Severity: In-Clinic Visit (Day 12), Median [2]: 1.300 | SHAQ Visual Analogue Scale - Overall Disease Severity: Percent Change from Baseline, Mean [2]: −51.76% | SHAQ Visual Analogue Scale - Overall Disease Severity: Percent Change from Baseline, Median [2]: −51.72% | SHAQ Visual Analogue Scale - Pain: Change from Baseline, Mean [2]: −0.500 | SHAQ Visual Analogue Scale - Pain: Change from Baseline, Median [2]: −0.250 | SHAQ Visual Analogue Scale - Pain: In-Clinic Visit (Day 12), Mean [2]: 1.617 | SHAQ Visual Analogue Scale - Pain: In-Clinic Visit (Day 12), Median [2]: 1.400 | SHAQ Visual Analogue Scale - Pain: Percent Change from Baseline, Mean [2]: −29.23% | SHAQ Visual Analogue Scale - Pain: Percent Change from Baseline, Median [2]: −48.78% | SHAQ Visual Analogue Scale - Raynaud's: Change from Baseline, Mean [2]: −0.550 | SHAQ Visual Analogue Scale - Raynaud's: Change from Baseline, Median [2]: −0.600 | SHAQ Visual Analogue Scale - Raynaud's: In-Clinic Visit (Day 12), Mean [2]: 1.667 | SHAQ Visual Analogue Scale - Raynaud's: In-Clinic Visit (Day 12), Median [2]: 1.250 | SHAQ Visual Analogue Scale - Raynaud's: Percent Change from Baseline, Mean [2]: −18.64% | SHAQ Visual Analogue Scale - Raynaud's: Percent Change from Baseline, Median [2]: −38.67% | SHAQ Standard Disability Index: Baseline, Mean [3]: 0.482 | SHAQ Standard Disability Index: Baseline, Median [3]: 0.375 | SHAQ Standard Disability Index: Change from Baseline, Mean [3]: −0.054 | SHAQ Standard Disability Index: Change from Baseline, Median [3]: 0.000 | SHAQ Standard Disability Index: Day 12, Mean [3]: 0.429 | SHAQ Standard Disability Index: Day 12, Median [3]: 0.125 | SHAQ Standard Disability Index: Percent Change from Baseline, Mean [3]: −25.00% | SHAQ Standard Disability Index: Percent Change from Baseline, Median [3]: −16.67% | SHAQ VAS Breathing Problems: Baseline, Mean [3]: 1.557 | SHAQ VAS Breathing Problems: Baseline, Median [3]: 0.200 | SHAQ VAS Breathing Problems: Change from Baseline, Mean [3]: −0.529
